Source: PMC11488158 (BJA: British Journal of Anaesthesia, 2024)

Experiments:
[1] = molecular target: T1, ryanodine receptor 1 (RyR1) (Homo sapiens, UniProt P21817); test: Fura-2 Ca2+ imaging, inhibition of Ca2+ release induced by […] ryanodine; format: cell-based
T1 construct: wild-type human skeletal myotubes

[2] = molecular target: T2, ryanodine receptor 1 (RyR1) (Oryctolagus cuniculus, UniProt P11716); test: protection from AziPm photolabelling ([…] propofol) in purified RyR1; the IC50 is from [3H]ryanodine binding in wild-type heavy SR vesicles at pCa […] (species not given, assumed)
T2 construct: full-length RyR1 purified from wild-type rabbit skeletal muscle; with FKBP12.6

[3] = molecular target: T2, ryanodine receptor 1 (RyR1); test: photoaffinity labelling of purified RyR1-FKBP12.[…] with MS; the IC50 is from [3H]ryanodine binding in wild-type heavy SR vesicles at pCa […] (species not given, assumed)

T2 sequence (P11716 whole entry): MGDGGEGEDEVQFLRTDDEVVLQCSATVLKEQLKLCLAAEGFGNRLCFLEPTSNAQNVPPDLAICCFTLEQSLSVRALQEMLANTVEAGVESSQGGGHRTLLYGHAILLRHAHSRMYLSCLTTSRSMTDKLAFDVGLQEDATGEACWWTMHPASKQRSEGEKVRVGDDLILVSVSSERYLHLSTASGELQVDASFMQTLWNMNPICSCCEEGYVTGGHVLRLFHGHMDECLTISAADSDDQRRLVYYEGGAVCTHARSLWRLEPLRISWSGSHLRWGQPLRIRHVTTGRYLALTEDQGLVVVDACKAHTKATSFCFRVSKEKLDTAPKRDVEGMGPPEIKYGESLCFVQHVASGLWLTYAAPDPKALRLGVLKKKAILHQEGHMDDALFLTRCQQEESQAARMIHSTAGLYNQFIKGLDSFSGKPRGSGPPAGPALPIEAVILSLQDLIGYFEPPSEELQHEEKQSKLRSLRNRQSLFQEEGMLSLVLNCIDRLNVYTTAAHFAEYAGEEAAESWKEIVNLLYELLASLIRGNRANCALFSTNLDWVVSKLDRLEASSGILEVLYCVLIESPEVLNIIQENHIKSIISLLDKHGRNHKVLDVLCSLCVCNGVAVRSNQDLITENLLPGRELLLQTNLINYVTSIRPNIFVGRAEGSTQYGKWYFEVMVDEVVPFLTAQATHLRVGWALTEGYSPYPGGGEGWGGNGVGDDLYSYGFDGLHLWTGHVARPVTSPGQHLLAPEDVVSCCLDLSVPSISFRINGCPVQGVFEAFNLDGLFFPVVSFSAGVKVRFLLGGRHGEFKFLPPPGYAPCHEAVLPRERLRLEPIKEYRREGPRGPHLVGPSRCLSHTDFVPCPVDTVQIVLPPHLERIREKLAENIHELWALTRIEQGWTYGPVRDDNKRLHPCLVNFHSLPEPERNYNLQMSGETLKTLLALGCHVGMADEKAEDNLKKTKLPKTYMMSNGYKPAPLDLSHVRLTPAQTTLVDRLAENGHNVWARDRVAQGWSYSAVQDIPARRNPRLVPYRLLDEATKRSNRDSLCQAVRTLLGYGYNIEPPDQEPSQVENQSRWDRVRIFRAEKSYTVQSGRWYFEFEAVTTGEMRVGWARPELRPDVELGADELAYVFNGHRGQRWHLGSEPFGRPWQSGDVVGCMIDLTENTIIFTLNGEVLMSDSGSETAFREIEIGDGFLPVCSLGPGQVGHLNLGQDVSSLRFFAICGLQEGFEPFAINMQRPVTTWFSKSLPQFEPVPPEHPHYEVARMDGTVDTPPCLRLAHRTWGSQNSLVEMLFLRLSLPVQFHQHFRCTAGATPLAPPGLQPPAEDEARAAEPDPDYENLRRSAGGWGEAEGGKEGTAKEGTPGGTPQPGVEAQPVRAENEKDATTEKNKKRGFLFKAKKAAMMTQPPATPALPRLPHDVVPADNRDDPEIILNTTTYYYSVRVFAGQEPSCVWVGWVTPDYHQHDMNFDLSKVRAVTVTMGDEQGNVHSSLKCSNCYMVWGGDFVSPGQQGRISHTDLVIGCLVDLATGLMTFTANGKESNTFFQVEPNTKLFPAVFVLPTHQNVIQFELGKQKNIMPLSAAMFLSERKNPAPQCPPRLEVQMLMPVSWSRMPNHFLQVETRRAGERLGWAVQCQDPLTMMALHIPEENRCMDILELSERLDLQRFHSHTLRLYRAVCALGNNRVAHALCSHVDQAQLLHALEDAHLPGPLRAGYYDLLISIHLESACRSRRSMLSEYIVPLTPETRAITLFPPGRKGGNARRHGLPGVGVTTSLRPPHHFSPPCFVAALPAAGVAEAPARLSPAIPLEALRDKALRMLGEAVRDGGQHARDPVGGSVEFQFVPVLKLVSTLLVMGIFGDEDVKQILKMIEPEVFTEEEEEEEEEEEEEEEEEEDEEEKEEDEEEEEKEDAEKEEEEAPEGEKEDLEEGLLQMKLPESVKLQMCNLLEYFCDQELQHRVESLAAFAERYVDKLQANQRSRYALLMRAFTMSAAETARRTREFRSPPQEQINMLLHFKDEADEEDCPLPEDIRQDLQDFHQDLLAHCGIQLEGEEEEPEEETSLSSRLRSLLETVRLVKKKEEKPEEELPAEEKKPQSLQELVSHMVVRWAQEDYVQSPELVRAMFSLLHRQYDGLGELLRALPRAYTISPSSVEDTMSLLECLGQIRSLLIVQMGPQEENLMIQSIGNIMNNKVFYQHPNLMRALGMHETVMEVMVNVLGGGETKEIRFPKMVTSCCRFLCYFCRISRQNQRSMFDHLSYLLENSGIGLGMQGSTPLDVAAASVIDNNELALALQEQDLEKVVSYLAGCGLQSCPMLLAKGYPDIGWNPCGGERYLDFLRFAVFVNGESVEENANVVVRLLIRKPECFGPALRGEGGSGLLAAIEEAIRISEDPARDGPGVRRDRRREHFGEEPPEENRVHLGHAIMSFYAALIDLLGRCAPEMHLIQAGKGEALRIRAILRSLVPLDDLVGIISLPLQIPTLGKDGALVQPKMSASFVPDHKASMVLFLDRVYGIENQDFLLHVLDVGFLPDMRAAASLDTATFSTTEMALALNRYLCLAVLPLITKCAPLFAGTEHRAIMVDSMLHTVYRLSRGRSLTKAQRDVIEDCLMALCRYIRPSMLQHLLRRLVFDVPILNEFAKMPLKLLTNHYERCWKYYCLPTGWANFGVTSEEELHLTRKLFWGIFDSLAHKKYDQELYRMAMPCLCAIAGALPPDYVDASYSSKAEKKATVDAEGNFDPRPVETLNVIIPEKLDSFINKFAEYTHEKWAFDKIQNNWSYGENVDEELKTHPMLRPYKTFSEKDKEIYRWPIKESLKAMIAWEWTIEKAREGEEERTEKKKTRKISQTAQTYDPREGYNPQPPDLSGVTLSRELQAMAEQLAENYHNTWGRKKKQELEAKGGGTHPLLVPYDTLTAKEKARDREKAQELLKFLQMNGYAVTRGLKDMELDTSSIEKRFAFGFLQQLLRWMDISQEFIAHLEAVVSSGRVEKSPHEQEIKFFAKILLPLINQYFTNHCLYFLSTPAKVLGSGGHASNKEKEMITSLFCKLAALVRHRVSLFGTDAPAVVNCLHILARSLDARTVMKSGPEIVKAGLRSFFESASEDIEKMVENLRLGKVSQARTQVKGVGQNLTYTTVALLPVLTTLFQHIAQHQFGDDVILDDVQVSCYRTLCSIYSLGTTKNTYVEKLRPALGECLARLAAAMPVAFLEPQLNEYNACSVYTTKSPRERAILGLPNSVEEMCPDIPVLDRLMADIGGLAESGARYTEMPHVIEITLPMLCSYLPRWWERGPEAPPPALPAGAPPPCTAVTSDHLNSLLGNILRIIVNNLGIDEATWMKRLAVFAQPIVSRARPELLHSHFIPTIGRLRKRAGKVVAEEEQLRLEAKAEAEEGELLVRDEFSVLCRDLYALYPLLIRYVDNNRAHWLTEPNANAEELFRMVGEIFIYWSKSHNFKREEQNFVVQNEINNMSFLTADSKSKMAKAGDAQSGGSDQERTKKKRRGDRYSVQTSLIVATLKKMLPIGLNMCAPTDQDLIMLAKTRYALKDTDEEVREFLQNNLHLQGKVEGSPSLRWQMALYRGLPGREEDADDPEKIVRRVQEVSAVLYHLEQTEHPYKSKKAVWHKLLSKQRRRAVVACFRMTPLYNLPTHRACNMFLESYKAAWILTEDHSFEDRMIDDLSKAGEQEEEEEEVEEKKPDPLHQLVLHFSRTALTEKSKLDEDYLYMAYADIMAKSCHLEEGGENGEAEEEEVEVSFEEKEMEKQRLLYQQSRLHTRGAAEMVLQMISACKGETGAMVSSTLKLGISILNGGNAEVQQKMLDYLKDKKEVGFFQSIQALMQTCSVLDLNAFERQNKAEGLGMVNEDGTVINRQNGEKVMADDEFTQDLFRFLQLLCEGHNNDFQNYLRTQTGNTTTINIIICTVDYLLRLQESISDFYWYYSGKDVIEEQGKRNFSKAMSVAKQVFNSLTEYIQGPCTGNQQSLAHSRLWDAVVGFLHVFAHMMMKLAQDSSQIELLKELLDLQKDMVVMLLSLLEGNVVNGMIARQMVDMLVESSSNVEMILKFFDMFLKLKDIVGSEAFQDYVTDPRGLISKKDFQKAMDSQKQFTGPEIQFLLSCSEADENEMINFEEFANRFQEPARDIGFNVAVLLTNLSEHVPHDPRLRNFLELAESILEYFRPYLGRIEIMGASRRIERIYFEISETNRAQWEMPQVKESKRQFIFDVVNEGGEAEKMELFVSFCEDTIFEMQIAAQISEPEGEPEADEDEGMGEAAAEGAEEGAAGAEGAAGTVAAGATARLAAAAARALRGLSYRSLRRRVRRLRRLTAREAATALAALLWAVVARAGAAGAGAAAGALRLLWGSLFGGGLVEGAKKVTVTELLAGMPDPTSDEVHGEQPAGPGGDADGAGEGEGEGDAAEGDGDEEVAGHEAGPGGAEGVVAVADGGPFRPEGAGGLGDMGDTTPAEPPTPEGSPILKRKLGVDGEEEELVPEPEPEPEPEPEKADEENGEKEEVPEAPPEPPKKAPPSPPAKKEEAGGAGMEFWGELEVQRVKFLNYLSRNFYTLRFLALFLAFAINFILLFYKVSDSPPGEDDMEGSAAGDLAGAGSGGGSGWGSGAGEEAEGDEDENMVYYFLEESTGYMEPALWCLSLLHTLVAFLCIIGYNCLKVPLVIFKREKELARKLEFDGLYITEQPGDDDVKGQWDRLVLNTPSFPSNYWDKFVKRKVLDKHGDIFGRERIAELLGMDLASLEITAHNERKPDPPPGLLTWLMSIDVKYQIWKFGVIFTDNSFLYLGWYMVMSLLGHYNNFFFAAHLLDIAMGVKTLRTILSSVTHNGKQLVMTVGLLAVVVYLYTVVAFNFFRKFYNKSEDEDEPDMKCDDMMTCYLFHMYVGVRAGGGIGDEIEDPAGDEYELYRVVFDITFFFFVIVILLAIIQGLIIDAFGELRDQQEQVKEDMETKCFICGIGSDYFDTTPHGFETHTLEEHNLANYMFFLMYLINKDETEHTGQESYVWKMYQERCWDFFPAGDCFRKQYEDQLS

| Compound | IC50 [1] [µM] | IC50 [2] [µM] | IC50 [3] [µM] |
| --- | --- | --- | --- |
| CC(C)c1cccc(C(C)C)c1O [Propofol] | 29.5 | 5.8 |  |
| CC(C)c1ccc(C2(C(F)(F)F)N=N2)cc1O [m-azipropofol] |  |  | 6.9 |
